What was measured:
[1] = test system: T47D; assay: Growth inhibition of human T47D cells assessed as cell growth at 10 uM after 48 hrs by sulforhodamine B assay; assay type: functional; conditions: read-out: Activity
[2] = Growth inhibition of human Hs 578T cells assessed as cell growth at 10 uM after 48 hrs by sulforhodamine B assay; assay type: functional; conditions: read-out: Activity
[3] = test system: UO-31; assay: Growth inhibition of human UO31 cells assessed as cell growth at 10 uM after 48 hrs by sulforhodamine B assay; assay type: functional; conditions: UO-31, 48 h, read-out: Activity
[4] = test system: PC-3; assay: Growth inhibition of human PC3 cells assessed as cell growth at 10 uM after 48 hrs by sulforhodamine B assay; assay type: functional; conditions: PC-3, 48 h, read-out: Activity
[5] = test system: HCT-15; assay: Growth inhibition of human HCT15 cells after 48 hrs by sulforhodamine B assay; assay type: functional; conditions: HCT-15, 48 h
[6] = test system: NCI-H460; assay: Growth inhibition of human NCI-H460 cells after 48 hrs by sulforhodamine B assay; assay type: functional; conditions: NCI-H460, 48 h
[7] = test system: NCI-H23; assay: Growth inhibition of human NCI-H23 cells after 48 hrs by sulforhodamine B assay; assay type: functional; conditions: NCI-H23, 48 h
[8] = test system: HOP-62; assay: Growth inhibition of human HOP62 cells after 48 hrs by sulforhodamine B assay; assay type: functional; conditions: HOP-62, 48 h; for CC50: read-out: LC50 (the source's name)
[9] = test system: SR; assay: Growth inhibition of human SR cells after 48 hrs by sulforhodamine B assay; assay type: functional; conditions: for CC50: read-out: LC50 (the source's name)
[10] = test system: MOLT-4; assay: Growth inhibition of human MOLT4 cells after 48 hrs by sulforhodamine B assay; assay type: functional; conditions: MOLT-4, 48 h; for CC50: read-out: LC50 (the source's name)
[11] = test system: CCRF-CEM; assay: Growth inhibition of human CCRF-CEM cells after 48 hrs by sulforhodamine B assay; assay type: functional
[12] = test system: SK-OV-3; assay: Growth inhibition of human SKOV3 cells assessed as cell growth at 10 uM after 48 hrs by sulforhodamine B assay; assay type: functional; conditions: SK-OV-3, 48 h, read-out: Activity
[13] = Growth inhibition of human NCI-ADR-RES cells assessed as cell growth at 10 uM after 48 hrs by sulforhodamine B assay; assay type: functional; conditions: read-out: Activity
[14] = test system: OVCAR-5; assay: Growth inhibition of human OVCAR5 cells assessed as cell growth at 10 uM after 48 hrs by sulforhodamine B assay; assay type: functional; conditions: OVCAR-5, 48 h, read-out: Activity
[15] = test system: OVCAR-8; assay: Growth inhibition of human OVCAR8 cells assessed as cell growth at 10 uM after 48 hrs by sulforhodamine B assay; assay type: functional; conditions: OVCAR-8, 48 h, read-out: Activity
[16] = test system: OVCAR-3; assay: Growth inhibition of human OVCAR3 cells assessed as cell growth at 10 uM after 48 hrs by sulforhodamine B assay; assay type: functional; conditions: OVCAR-3, 48 h, read-out: Activity
[17] = test system: U-251; assay: Growth inhibition of human U251 cells assessed as cell growth at 10 uM after 48 hrs by sulforhodamine B assay; assay type: functional; conditions: U-251, 48 h, read-out: Activity
[18] = test system: SF-268; assay: Growth inhibition of human SF268 cells assessed as cell growth at 10 uM after 48 hrs by sulforhodamine B assay; assay type: functional; conditions: SF-268, 48 h, read-out: Activity
[19] = test system: COLO 205; assay: Growth inhibition of human COLO205 cells assessed as cell growth at 10 uM after 48 hrs by sulforhodamine B assay; assay type: functional; conditions: COLO 205, 48 h, read-out: Activity
[20] = test system: NCI-H522; assay: Growth inhibition of human NCI-H522 cells assessed as cell growth at 10 uM after 48 hrs by sulforhodamine B assay; assay type: functional; conditions: NCI-H522, 48 h, read-out: Activity
[21] = test system: UO-31; assay: Growth inhibition of human UO31 cells after 48 hrs by sulforhodamine B assay; assay type: functional; conditions: UO-31, 48 h; for CC50: read-out: LC50 (the source's name)
[22] = test system: CAKI-1; assay: Growth inhibition of human CAKI-1 cells after 48 hrs by sulforhodamine B assay; assay type: functional; conditions: CAKI-1, 48 h; for CC50: read-out: LC50 (the source's name)
[23] = test system: 786-0; assay: Growth inhibition of human 786-0 cells after 48 hrs by sulforhodamine B assay; assay type: functional; conditions: 786-0, 48 h; for CC50: read-out: LC50 (the source's name)
[24] = test system: OVCAR-8; assay: Growth inhibition of human OVCAR8 cells after 48 hrs by sulforhodamine B assay; assay type: functional; conditions: OVCAR-8, 48 h; for CC50: read-out: LC50 (the source's name)
[25] = Growth inhibition of human NCI-ADR-RES cells after 48 hrs by sulforhodamine B assay; assay type: functional; conditions: for CC50: read-out: LC50 (the source's name)
[26] = test system: OVCAR-5; assay: Growth inhibition of human OVCAR5 cells after 48 hrs by sulforhodamine B assay; assay type: functional; conditions: OVCAR-5, 48 h
[27] = test system: OVCAR-4; assay: Growth inhibition of human OVCAR4 cells after 48 hrs by sulforhodamine B assay; assay type: functional; conditions: OVCAR-4, 48 h
[28] = test system: SK-MEL-5; assay: Growth inhibition of human SK-MEL-5 cells after 48 hrs by sulforhodamine B assay; assay type: functional; conditions: SK-MEL-5, 48 h
[29] = test system: MDA-MB-435; assay: Growth inhibition of human MDA-MB-435 cells after 48 hrs by sulforhodamine B assay; assay type: functional, cell-based; conditions: MDA-MB-435, 48 h
[30] = test system: M14; assay: Growth inhibition of human M14 cells after 48 hrs by sulforhodamine B assay; assay type: functional; conditions: M14, 48 h
[31] = test system: Malme-3M; assay: Growth inhibition of human MALME-3M cells after 48 hrs by sulforhodamine B assay; assay type: functional
[32] = test system: U-251; assay: Growth inhibition of human U251 cells after 48 hrs by sulforhodamine B assay; assay type: functional; conditions: U-251, 48 h
[33] = test system: SF-268; assay: Growth inhibition of human SF268 cells after 48 hrs by sulforhodamine B assay; assay type: functional; conditions: SF-268, 48 h; for CC50: read-out: LC50 (the source's name)
[34] = test system: HOP-62; assay: Growth inhibition of human HOP62 cells assessed as cell growth at 10 uM after 48 hrs by sulforhodamine B assay; assay type: functional; conditions: HOP-62, 48 h, read-out: Activity
[35] = test system: HL-60(TB); assay: Growth inhibition of human HL-60(TB) cells assessed as cell growth at 10 uM after 48 hrs by sulforhodamine B assay; assay type: functional; conditions: HL-60, 48 h, read-out: Activity

COc1cc(-c2nn(-c3cccc(NC(=O)c4cccc(C(F)(F)F)c4)c3)cc2-c2ccncc2)ccc1Cl
growth at 10 µM [1]: 29% | growth at 10 µM [2]: -5.69% | growth at 10 µM [3]: 25.1% | growth at 10 µM [4]: 4.39% | GI50 [5]: 1550 nM | LC50 [5]: > 50000 nM | TGI [5]: > 50000 nM | GI50 [6]: 1450 nM | LC50 [6]: > 50000 nM | TGI [6]: 9270 nM | GI50 [7]: 1560 nM | LC50 [7]: > 50000 nM | TGI [7]: 32500 nM | TGI [8]: > 50000 nM | CC50 [8]: > 50000 nM | GI50 [9]: 838 nM | TGI [9]: 4590 nM | CC50 [9]: > 50000 nM | GI50 [10]: 2010 nM | TGI [10]: > 50000 nM | CC50 [10]: > 50000 nM | GI50 [11]: 1450 nM | LC50 [11]: > 50000 nM | TGI [11]: > 50000 nM | growth at 10 µM [12]: 7.18% | growth at 10 µM [13]: 2.75% | growth at 10 µM [14]: 49.4% | growth at 10 µM [15]: 11.8% | growth at 10 µM [16]: -25.6% | growth at 10 µM [17]: 13.1% | growth at 10 µM [18]: 30.5% | growth at 10 µM [19]: 7.11% | growth at 10 µM [20]: -42.3% | GI50 [21]: 968 nM | TGI [21]: > 50000 nM | CC50 [21]: > 50000 nM | GI50 [22]: 2010 nM | TGI [22]: > 50000 nM | CC50 [22]: > 50000 nM | GI50 [23]: 2450 nM | TGI [23]: > 50000 nM | CC50 [23]: > 50000 nM | GI50 [24]: 2000 nM | TGI [24]: > 50000 nM | CC50 [24]: > 50000 nM | GI50 [25]: 1090 nM | TGI [25]: 3170 nM | CC50 [25]: > 50000 nM | GI50 [26]: 4010 nM | LC50 (concentration killing 50% of cells) [26]: > 50000 nM | TGI [26]: > 50000 nM | GI50 [27]: 2280 nM | LC50 (concentration killing 50% of cells) [27]: > 50000 nM | TGI [27]: > 50000 nM | GI50 [28]: 978 nM | LC50 (concentration killing 50% of cells) [28]: 40600 nM | TGI [28]: 2470 nM | GI50 [29]: 705 nM | IC50 [29]: 710 nM | TGI [29]: 1770 nM | GI50 [30]: 1630 nM | LC50 (concentration killing 50% of cells) [30]: > 50000 nM | TGI [30]: > 50000 nM | GI50 [31]: 1990 nM | LC50 (concentration killing 50% of starting cells) [31]: > 50000 nM | TGI [31]: > 50000 nM | GI50 [32]: 1620 nM | LC50 (concentration killing 50% of cells) [32]: > 50000 nM | TGI [32]: > 50000 nM | GI50 [33]: 2130 nM | TGI [33]: > 50000 nM | CC50 [33]: > 50000 nM | growth at 10 µM [34]: 22.9% | growth at 10 µM [35]: 1.93%

O=C(Nc1cccc(-n2cc(-c3ccncc3)c(-c3ccc(Cl)c(O)c3)n2)c1)Nc1cc(C(F)(F)F)cc(C(F)(F)F)c1
growth at 10 µM [1]: 12.1% | growth at 10 µM [2]: -26% | growth at 10 µM [3]: -34.4% | growth at 10 µM [4]: -32.4% | GI50 [5]: 474 nM | LC50 [5]: 21200 nM | TGI [5]: 3520 nM | GI50 [6]: 413 nM | LC50 [6]: 4860 nM | TGI [6]: 1480 nM | GI50 [7]: 1020 nM | LC50 [7]: 18200 nM | TGI [7]: 3270 nM | GI50 [8]: 964 nM | TGI [8]: 1980 nM | CC50 [8]: 4070 nM | GI50 [9]: 922 nM | TGI [9]: 3660 nM | CC50 [9]: > 50000 nM | GI50 [10]: 1150 nM | TGI [10]: 4360 nM | CC50 [10]: > 50000 nM | GI50 [11]: 789 nM | LC50 [11]: > 50000 nM | TGI [11]: 6780 nM | growth at 10 µM [12]: -24.4% | growth at 10 µM [13]: 4.72% | growth at 10 µM [14]: -32.9% | growth at 10 µM [15]: -12.2% | growth at 10 µM [16]: -67.5% | growth at 10 µM [17]: -83.8% | growth at 10 µM [18]: -36.4% | growth at 10 µM [19]: -97.3% | growth at 10 µM [20]: -50.1% | GI50 [21]: 647 nM | TGI [21]: 1900 nM | CC50 [21]: 6600 nM | GI50 [22]: 1010 nM | TGI [22]: 4420 nM | CC50 [22]: 26500 nM | GI50 [23]: 1170 nM | TGI [23]: 3160 nM | CC50 [23]: 18000 nM | GI50 [24]: 563 nM | TGI [24]: 5920 nM | CC50 [24]: 43700 nM | GI50 [25]: 1070 nM | TGI [25]: 5250 nM | CC50 [25]: 38700 nM | GI50 [26]: 875 nM | LC50 (concentration killing 50% of cells) [26]: 4700 nM | TGI [26]: 2030 nM | GI50 [27]: 849 nM | LC50 (concentration killing 50% of cells) [27]: 23900 nM | TGI [27]: 5010 nM | GI50 [28]: 600 nM | LC50 (concentration killing 50% of cells) [28]: 2620 nM | TGI [28]: 1250 nM | GI50 [29]: 910 nM | IC50 [29]: 910 nM | TGI [29]: 2590 nM | CC50 ([29]; read-out: LC50 (the source's name)): 15600 nM | GI50 [30]: 607 nM | LC50 (concentration killing 50% of cells) [30]: 6060 nM | TGI [30]: 1810 nM | GI50 [31]: 939 nM | LC50 (concentration killing 50% of starting cells) [31]: 23500 nM | TGI [31]: 3030 nM | GI50 [32]: 463 nM | LC50 (concentration killing 50% of cells) [32]: 2800 nM | TGI [32]: 1170 nM | GI50 [33]: 846 nM | TGI [33]: 2690 nM | CC50 [33]: 20500 nM | growth at 10 µM [34]: -86.1% | growth at 10 µM [35]: -18.3%

From ChEMBL document CHEMBL2440076, “New triarylpyrazoles as broad-spectrum anticancer agents: design, synthesis, and biological evaluation” (Eur J Med Chem, 2013)
